Measurements reported in US9167812B2, “Biocide compositions comprising amides based on 2-furoic acid and its derivatives” (Cognis IP Management GmbH, priority 2010, dated 2015).
Read-outs that look alike come from different tables or passages of the source.

What was measured:
[1] = Solubility in water of each amide; type: physicochemical
Procedure: (§1) Solubility of several pesticides was measured in THF amides versus other amides. In addition the solubility in water of each amide has been checked.

[2] = Solubility of pesticides in THF amides versus other amides; type: physicochemical
Procedure: as §1

[3] = solubility of the amide solvent in water

For `CN(C)C(=O)c1ccco1` [Example 5, 2-Furoic acid dimethyl amide], the Water solubility [1, 3] was “Medium”.
In the case of `CCCCN(CCCC)C(=O)c1ccco1` [Example 6, 2-Furoic acid dibutyl amide], the Water solubility [1, 3] is reported as “Medium”.
In the case of `CN(C)C(=O)C1CCCO1` (stereo not shown) [Example 7, THF dimethyl amide], the “Solubility of biocides: Epoxyconazole” value [2] is reported as 10 % b.w, the “Solubility of biocides: Imidacloprid” value [2] is reported as 19 % b.w and the “Solubility of biocides: Oxyfluorfen” value [2] is reported as 31 % b.w. For the same molecule, the “Solubility of biocides: Tebuconazole” value [2] was 46 % b.w and the Water solubility [1] was “High”.
For `CCCCN(CCCC)C(=O)C1CCCO1` (stereo not shown) [Example 8, 2-Tetrahydrofuroic Acid Dibutylamide], the Water solubility [1, 3] was “Medium”.
With `CCCCCCCCCC(=O)N(C)C` [Example C3, C10 dimethyl amide, reference compound] the “Solubility of biocides: Epoxyconazole” value ([2]; Epoxyconazole dissolved in the named solvent) was 8 % b.w, the “Solubility of biocides: Imidacloprid” value ([2]; Imidacloprid dissolved in the named solvent) was 2 % b.w and the “Solubility of biocides: Oxyfluorfen” value ([2]; Oxyfluorfen dissolved in the named solvent) was 27 % b.w. For the same molecule, the “Solubility of biocides: Tebuconazole” value ([2]; Tebuconazole dissolved in the named solvent) was 32 % b.w and the Water solubility [1, 3] was “Low”.
